Test results published in patent US20100003228A1, “T-CELL VACCINE” (priority 2006, published 2010).

Columns and labels:
Assay type in all cases: cell-based, human
[1] = tested on: myelin reactive T cells in PBMCs; assay: Epitope Analysis Assay (EAA): PBMC stimulation with myelin peptide mixes, tritiated thymidine incorporation, SI of at least 3 positive; details: patient of Example 8, FIG. 8
Description: The SI may be calculated by comparing [^3H] thymidine incorporation of the sample in the presence of a peptide comprising a portion of an MRTC polypeptide target to that in the presence of a media only control. Briefly, separate aliquots of the sample are plated and incubated in the presence of either a peptide comprising a portion of the polypeptide or a media only control in order to stimulate reactive T cells. The cultures are pulsed with [^3H] thymidine during the last 6-18 hours of incubation. The SI is calculated as the quotient of the mean counts per minute (cpm) of the antigen aliquots/mean cpm of the control aliquots. The SI of autoreactive T cells may be increased by at least a factor of 1.3, 1.4, 1.5, 1.6, 1.7, 1.8, 1.9, 2.0, 2.1, 2.2, 2.3, 2.4, 2.5, 2.6, 2.7. 2.8, 2.9, 3.0, 3.1, 3.2, 3.3, 3.4, 3.5, 3.6, 3.7, 3.8, 3.9, or 4.0 compared to a control.
The peptides in Example 2 were tested in an in vitro PBMC stimulation assay to identify myelin reactive T cells in a patient's blood. Peripheral blood mononuclear cells (PBMCs) were separated from whole blood, washed, counted and plated at 250,000 cells per well in a total of four 96-well plates. Myelin peptide mixes of two overlapping 16-mer peptides were added to triplicate wells of PBMCs with triplicate media only control wells included on each plate and then incubated. After two days of incubation, 20 U/ml of interleukin-2 (IL-2) was added. On the fifth day, the plates were labeled with a radioisotope (tritiated thymidine) and harvested 6 hours later. In this assay, the cells that incorporate tritiated thymidine are representative of T cells being activated and induced to proliferate by the T cell receptor-peptide-MHC complexes. T cells incorporating comparatively more tritiated thymidine than control and experimental cells are more highly activated T cells and are proliferating more rapidly.
Stimulation Indices (SI) were determined for each peptide mix by dividing the mean radiolabel counts per minute (CPM) of the peptide stimulated wells by the mean CPM of the media only control wells averaged across all four plates. An SI of at least 3 was considered positive. FIG. 1 is an example of EAA from one MS patient. Seven of the peptide mixtures were slightly reactive, with the MOGm15 stimulated wells being very reactive. FIGS. 2-4 show the frequency of reactivity to the peptide mixes in 48 patients.

[2] = tested on: PBMCs / T cells; assay: Growth analysis of T cell lines stimulated with EAA-selected peptide mixes; details: from 15 million PBMCs, in 20 days, 3 stimulations
Description: Patient-specific peptides identified by EAA were tested to determine whether they could be used to produce and expand myelin-reactive T-cells for use in a vaccine. A 500 ml bag of blood was obtained from the patient to set up vaccine production cultures. Bulk cultures were set up in AIM V medium along with the optimized peptides. After 48 hours of incubation, rIL-2 was added at 20 U/ml. Seven days later, the cultures were re-stimulated with PBMCs and peptide. The media was changed to 2% AB serum with 100 U/ml rIL2 in X Vivo 15 medium. The cultures were fed and split every 1-4 days as necessary. After an additional seven days, the cultures were once again stimulated with APCs and peptides. The cultures were continued to be fed and split every 1-4 days as necessary. After an additional 7-14 days, the cultures had expanded to at least 100×10^6 cells. The cells were divided into aliquots of 10×10^6 cells and frozen.
The ability of stimulation with the EAA-selected peptides to more rapidly expand the stimulated the T cells were tested. The cell growth curves were analyzed for two different stimulatory peptide mixes. The EAA CPM data shown in FIG. 8 show a strongly reactive mix in MBPm19 for a patient with an SI of 4.7. […] These two peptides mixes were then used to stimulate PBMCs from this patient to produce T cell lines. […]

[3] = tested on: myelin reactive T cells in PBMCs; assay: EAA with positivity by Variance Evaluation Method or CPM Variance Method (clinical trials); details: clinical trial population, RR-MS or CIS subjects
From the text: The predetermined value may also be calculated using a Variance Evaluation Method as follows: • 1. EAAs may be run on a given patient population (minimum of 120 assays from 120 unique subjects) • 2. A “negative population” may be created by averaging all SI values<2.5 • 3. The Standard Deviation (SD) may be calculated for each peptide • 4. The following for each peptide may be then be calculated: • a. Average+1SD • b. Average+2SD • c. Average+3SD • 5. The following SIs may be considered above the predetermined value: • a. SI greater than or equal to the average+3SD • b. Any SI greater than or equal to 2.5
The predetermined value may also be evaluated using a Counts per Minute (CPM) Variance Method. This algorithm may set a comprehensive cutoff for all peptides within a given assay. It may be calculated as follows: • 1. EAAs may be run and the CPM for all control (media only, no antigen) wells averaged. • 2. The SD for CPM of the control wells may then be calculated. • 3. The following may then be calculated for the control wells: • a. Average+1SD • b. Average+2SD • c. Average+3SD • 4. Any peptide with an average CPM greater than or equal to the average+3SD of the control wells may be considered above the predetermined value.
Any peptide, either analyzed in an individual well or as averaged over wells run in triplicate, with an SI≧2.5, an SI≧average+3SD by the Variance Evaluation Method, or an SI≧average+3SD by the CPM variance method may be considered above the predetermined value, which may indicate a T cell(s) positive for reactivity to a peptide.
The peptides of Example 3 have been tested in 429 EAAs in clinical trials as follows. […] Pre-Vaccine EAAs have 158 positive out of 387 assays (40.8%), with Relapse Remitting MS patients (RRMS) showing 150 positive of 368 assays (40.8%), and Clinically Isolated Syndrome (CIS) patients showing 8 positive of 19 assays (42.1%).
Over the course of 6 months a study was conducted with 120 subjects meeting the criteria for the clinical trial.
The above mentioned population of subjects was evaluated by EAA using the Variance Evaluation Method and CPM Variance Method as described above, and deemed eligible for vaccine production. Of the 120 attempts to manufacture vaccine, there were 2 shipping failures (blood was not received within our stated criteria), 1 culture was lost to contamination and 5 samples arrived with low cell volume/yield. Of the remaining 112 subjects, vaccine was successfully generated in 89 subjects, with 22 still in production (98.9% of eligible samples, 92.5% of all samples completed). From this, a positive EAA was deemed predictive of the ability to manufacture a vaccine to therapeutic dose by methods disclosed herein.

[4] = tested on: T cell receptor variable beta chain usage (Vβ); assay: TCR V beta analysis of peptide-stimulated T cell line by flow cytometry; details: Day 9 to Day 16 in culture, FIG. 10
Description: Enrichment of T cell subsets was evaluated by analyzing the T cell receptor variable beta chain usage (Vβ). The 24 different known beta chain variable (Vβ) region families were evaluated using specific fluorescent-labeled monoclonal antibodies and flow cytometry. If a particular subset of T cells is selectively expanded by stimulation with a peptide, an increase would be detected in the percentage of cells expressing one of the V beta families as that subset expands.
[…] A T cell line was produced by stimulating the patient's PBMCs with peptide mix MBPm10, which had produced an SI of 4.6 in the original EAA for this patient. […] This mix was used to stimulate PBMCs from this patient in culture.

Substance	Stimulation Index (SI) [1]	T cells after expansion [2]	# of Subjects (frequency of identification) [3]	% of Subjects (frequency of identification) [3]	TCR V beta focusing [4]
PLPm33: mix of PLP 65 and PLP 66 (chain 1 FMIAATYNFAVLKLMG; chain 2 ATYNFAVLKLMGRGTK)	17.9	200 million T cells	11	9.2%	
PLPm27: mix of PLP 53 and PLP 54 (chain 1 VLPWNAFPGKVCGSNL; chain 2 NAFPGKVCGSNLLSIC)			6	5.0%	V beta chain 5-5 is expanding
